The text below walks through data of patent publication US9169241B2, “Quinolinyloxyphenylsulfonamides” (Max-Planck-Gesellschaft Zur Forderung der Wissenschaften …, priority 2009, dated 2015).

Data set [1] concerns Hs578T. The experiment in a line: Matrigel outgrowth assay/branching assay. In kind it is cell-based. Particulars: Homo sapiens, Hs-578T; HS578T cell line; Table Ib; read-out: Total branching inhibition in Matrigel HS578T. In outline: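 Read-out: microscopic images of invasive branching structures at 48 h, 72 h and 96 h. Cells sat on a 3 mg/ml Matrigel layer (set 1 h, 37° C) with compound at 3.125, 1.56 and 0.78 μM or DMSO. A concentration counts as positive only with complete branching inhibition.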

For data set [2], the target named is T1, wild type AXL (wtAXL) receptor tyrosine kinase (Homo sapiens, UniProt P30530).
T1 construct: WtAXL cDNA was cloned into vector pLXSN(ESK) and transfected into Phoenix E packaging cells; expressed in transfected cells; host or cells: NIH3T3 N7 (mouse fibroblasts), retrovirally infected, clone 22
T1 sequence (P30530 26-894): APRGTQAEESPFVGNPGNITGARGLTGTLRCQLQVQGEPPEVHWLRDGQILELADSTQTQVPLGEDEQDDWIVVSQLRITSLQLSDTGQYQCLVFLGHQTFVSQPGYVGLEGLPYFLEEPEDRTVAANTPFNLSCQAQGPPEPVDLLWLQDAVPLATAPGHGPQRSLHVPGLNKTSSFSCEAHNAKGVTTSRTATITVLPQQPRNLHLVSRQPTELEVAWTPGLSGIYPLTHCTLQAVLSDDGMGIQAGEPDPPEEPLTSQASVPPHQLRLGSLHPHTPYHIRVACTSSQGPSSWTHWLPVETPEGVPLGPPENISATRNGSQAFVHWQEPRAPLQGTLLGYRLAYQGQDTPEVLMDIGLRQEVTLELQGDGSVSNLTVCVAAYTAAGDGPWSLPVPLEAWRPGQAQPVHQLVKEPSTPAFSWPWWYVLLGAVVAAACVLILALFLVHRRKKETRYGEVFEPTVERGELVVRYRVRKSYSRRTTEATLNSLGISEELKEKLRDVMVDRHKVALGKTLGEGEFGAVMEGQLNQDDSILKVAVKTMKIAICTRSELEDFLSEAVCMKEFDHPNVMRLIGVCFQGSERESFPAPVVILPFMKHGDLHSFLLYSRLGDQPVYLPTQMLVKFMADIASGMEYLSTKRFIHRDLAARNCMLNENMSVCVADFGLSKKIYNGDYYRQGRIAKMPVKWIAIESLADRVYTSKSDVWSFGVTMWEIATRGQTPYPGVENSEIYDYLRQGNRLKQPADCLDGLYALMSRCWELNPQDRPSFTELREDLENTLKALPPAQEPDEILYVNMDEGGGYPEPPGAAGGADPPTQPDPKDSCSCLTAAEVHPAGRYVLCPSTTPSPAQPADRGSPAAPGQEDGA
The data set can be described thus: NIH-3T3-AXL cellular kinase assay (pY-AXL-ELISA). In kind it is cell-based. Particulars: NIH-3T3-AXL (clone 22) cells, serum depleted, compounds 1 h; Table Ia. On the procedure:
WtAXL cDNA was cloned into vector pLXSN(ESK) and transfected into Phoenix E packaging cells. The viral supernatant was collected and used to infect target cells NIH3T3 N7. Monoclonal NIH3T3-AXL cell lines stably expressing wtAXL were generated by selecting retrovirally infected cells in medium containing puromycin (2 μg/ml) and subsequent clonal separation.
Serial dilutions of compounds were added, and the cells were further incubated for 1 h. Cells were washed with PBS and lysed on ice in 500 μl lysis buffer (50 mM HEPES (pH 7.5), 150 mM NaCl, 1 mM EGTA, 10% Glycerol, 1% Triton X-100, 100 mM NaF, 10 mM Na4P2O7.10H2O, 1 mM Na3VO4, 1 mM phenylmethylsulfonyl fluoride, and […]) for 15 min. The cell lysate were used for phosphotyrosine AXL enzyme-linked immunosorbant assay (pY-AXL-ELISA). […] Subsequently 96-well plates were blocked with PBS-0.05% Tween®20+10% FBS for 4 h at 37° C. Plates were washed 5 times with PBS-0.05% Tween®20 and 95 μl of lysate was transferred per well for incubation overnight at 4° C. Plates were washed 5 times with PBS-0.05% Tween®20 (Sigma, Steinheim, Germany). For detection of phosphorylated tyrosine we used homemade biotynilated 4G10-antibody (0.5 μg/ml) in PBS-0.05% Tween®20+10% FBS (100 μl/well) and incubated the 96-well plate for 2 h at room temperature. The anti-phosphotyrosine mouse monoclonal antibody 4G10 was biotynilated with Sulfo-NHS®-Biotin according to the suppliers protocol (Pierce, Rockford, Ill., USA) and purified by Mirco Bio-Spin 6 Chromatograpy Columns (BIO RAD Laboratories, Inc., Hercules, Calif., USA) using PBS as diluent. Plates were washed 5 times with PBS-0.05% Tween®20. For biding to biotin Alkaline Phosphatase Conjugated Strepavidin SA110 (Millipore, Billerica, Mass., USA) (1:4000) was used in PBS-0.05% Tween20+10% FBS (100 μl/well) and incubated for 30 min at room temperature. Plates were washed 5 times with PBS-0.05% Tween20. For fluorimetric detection of alkaline phosphatase AttoPhos Substrate Set (Roche diagnostics GmbH, Mannheim, Germany) was used (100 μl/well). The fluorimetric signal was quantified after 90 min at 430/560 nm wavelength using a TECAN Ultra Evolution plate reader (Tecan Deutschland GmbH, Crailsheim, Germany).
In general terms: ELISA stands for enzyme-linked immunosorbent assay.

The test system of data set [3] is Hs578T. The experiment in a line: Wound healing migration assay. The class given is cell-based. The conditions noted are these: Homo sapiens, Hs-578T; HS578T cell line; Table Ib. In outline:
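Cells seeded at 150000/24 well, grown to monolayer overnight, scratched with a pipette tip, then treated with compound at 12.5, 6.25 or 3.125 μM versus DMSO. Stopped by crystal violet fixation at 48-72 h once control wounds closed; IC50 taken as 50% wound size between t0 and t48 or t72.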

For data set [4], the system named is Hs578T. The data set can be described thus: Cell vitality assay (ATP assay, CellTiter-Glo). The class given is cell-based. Particulars: Homo sapiens, Hs-578T; HS578T cell line, 72 h; Table Ib; read-out: IC50 ATP-Assay HS578T after 72 h. In outline:
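Cells (1000/well) incubated 72 h with test compound, top dose 12.5 μM, twofold dilutions, DMSO as reference. Lysis reagent added, luminescence recorded; background from cell-free medium wells.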

Molecules are shown by their SMILES.

Turning to `COc1cc2c(Oc3ccc(NS(=O)(=O)c4csc5ccccc45)cc3F)ccnc2cc1OCCCN1CCC(C)CC1` [Example 115, Benzo[b]thiophene-3-sulfonic acid (3-fluoro-4-{6-methoxy-7-[3-(4-methyl-piperidin-1-yl)-propoxy]-quinolin-4-loxy}-phenyl)-amide], the melting point – broadly, the temperature, or range, at which the solid turns liquid – lay in the range of 132 to 135 °C. For the same compound, the IC50 in the data set with Hs578T [1] was not above 10 µM. The compound further registered an IC50 in data set [2] of less than 0.5 µM. Also, in the data set on Hs578T [3], the IC50 was not above 12.5 µM. The IC50 in the data set on Hs578T [4] was not above 12.5 µM.
As to `COc1cc2c(Oc3ccc(NS(=O)(=O)c4csc5ccccc45)cc3F)ccnc2cc1OCCCN1CCN(C)CC1` [Example 116, Benzo[b]thiophene-3-sulfonic acid (3-fluoro-4-{6-methoxy-7-[3-(4-methyl-piperazin-1-yl)-propoxy]-quinolin-4-yloxy}-phenyl)-amide], the melting point is 112 to 114 °C. The IC50 in the data set with Hs578T [1] lay within 10 to 25 µM. This compound had an IC50 in data set [2] of less than 0.5 µM. The IC50 in the data set with Hs578T [3] is not above 12.5 µM. Further, in the data set on Hs578T [4], the IC50 was not above 12.5 µM.
As for `COc1cc2c(Oc3ccc(NS(=O)(=O)c4csc5ccccc45)cc3Cl)ccnc2cc1OCCCN1CCN(C)CC1` [Example 117, Benzo[b]thiophene-3-sulfonic acid (3-chloro-4-{6-methoxy-7-[3-(4-methyl-piperazin-1-yl)-propoxy]-quinolin-4-yloxy}-phenyl)-amide], the melting point fell in the range of 98 to 101 °C. The IC50 with Hs578T [1] was in the range of 10 to 25 µM. This compound had an IC50 in data set [2] of less than 0.5 µM. The compound further returned an IC50 with Hs578T [3] not above 12.5 µM. Also, the IC50 in the data set on Hs578T [4] is not above 12.5 µM.
The compound `COc1cc2c(Oc3ccc(NS(=O)(=O)c4cc(Cl)ccc4Cl)cc3Cl)ccnc2cc1OCCCN1CCN(C)CC1` [Example 124, 2,5-Dichloro-N-(3-chloro-4-{6-methoxy-7-[3-(4-methyl-piperazin-1-yl)-propoxy]-quinolin-4-yloxy}-phenyl)-benzenesulfonamide] gave a melting point of 144 to 145 °C. For the same compound, the IC50 with Hs578T [1] was not above 10 µM. The same compound showed an IC50 in data set [2] of less than 0.5 µM. Further, the IC50 with Hs578T [3] was not above 12.5 µM. In addition, the IC50 with Hs578T [4] was not above 12.5 µM.
As to `COc1cc2c(Oc3cccc(NS(=O)(=O)c4cc(Cl)ccc4Cl)c3)ccnc2cc1OCCCN1CCN(C)CC1` [Example 127, 2,5-Dichloro-N-(3-{6-methoxy-7-[3-(4-methyl-piperazin-1-yl)-propoxy]-quinolin-4-yloxy}-phenyl)-benzenesulfonamide], the melting point was 111 to 113 °C. In addition, the IC50 in the data set on Hs578T [1] is not above 10 µM. In data set [2], the IC50 fell in the range of 0.5 to 3 µM. This compound returned an IC50 with Hs578T [3] not above 12.5 µM. Also, the IC50 in the data set on Hs578T [4] was not above 12.5 µM.
`COc1cc2c(Oc3cccc(NS(=O)(=O)c4c(Cl)cccc4Cl)c3)ccnc2cc1OCCCN1CCN(C)CC1` [Example 128, 2,6-Dichloro-N-(3-{6-methoxy-7-[3-(4-methyl-piperazin-1-yl)-propoxy]-quinolin-4-yloxy}-phenyl)-benzenesulfonamide] came in with a melting point of 111 to 112 °C. Moreover, the IC50 with Hs578T [1] was not above 10 µM. This compound also showed an IC50 in data set [2] of 0.5 to 3 µM. The compound further gave an IC50 in the data set with Hs578T [3] not above 12.5 µM. Further, in the data set with Hs578T [4], the IC50 was not above 12.5 µM.
Turning to `COc1cc2c(Oc3cccc(NS(=O)(=O)c4cc(Cl)sc4Cl)c3)ccnc2cc1OCCCN1CCN(C)CC1` [Example 134, 2,5-Dichloro-thiophene-3-sulfonic acid (3-{6-methoxy-7-[3-(4-methyl-piperazin-1-yl)-propoxy]-quinolin-4-yloxy}-phenyl)-amide], the melting point lay within 177 to 178 °C. The IC50 in the data set on Hs578T [1] is not above 10 µM. Moreover, in data set [2], the IC50 fell in the range of 0.5 to 3 µM. In the data set with Hs578T [3], this compound returned an IC50 not above 12.5 µM. The IC50 with Hs578T [4] is not above 12.5 µM.
Compound `COc1cc2c(Oc3cccc(NS(=O)(=O)c4csc5ccccc45)c3)ccnc2cc1OCCCN1CCN(C)CC1` [Example 136, Benzo[b]thiophene-3-sulfonic acid (3-{6-methoxy-7-[3-(4-methyl-piperazin-1-yl)-propoxy]-quinolin-4-yloxy}-phenyl)-amide] had a melting point of 91 to 93 °C. Further, the IC50 in the data set with Hs578T [1] is not above 10 µM. Further, the IC50 in data set [2] lay within 0.5 to 3 µM. The same compound showed an IC50 in the data set on Hs578T [3] not above 12.5 µM. Besides, in the data set with Hs578T [4], the IC50 is not above 12.5 µM.
In turn, `COc1cc2c(Oc3ccc(NS(=O)(=O)c4cccs4)cc3F)ccnc2cc1OCCCN1CCCCC1C` (stereo not shown) [Example 144, Thiophene-2-sulfonic acid (3-fluoro-4-{6-methoxy-7-[3-(2-methyl-piperidin-1-yl)-propoxy]-quinolin-4-yloxy}-phenyl)-amide] gave a melting point of 117 to 119 °C. For the same compound, in the data set with Hs578T [1], the IC50 is 10 to 25 µM. This compound also had an IC50 in data set [2] of less than 0.5 µM. Besides, the IC50 in the data set with Hs578T [3] was not above 12.5 µM. In addition, in the data set with Hs578T [4], the IC50 is not above 12.5 µM.
The compound `COc1cc2c(Oc3ccc(NS(=O)(=O)c4ccc(Cl)s4)cc3F)ccnc2cc1OCCCN1CCCCC1C` (stereo not shown) [Example 145, 5-Chloro-thiophene-2-sulfonic acid (3-fluoro-4-{6-methoxy-7-[3-(2-methyl-piperidin-1-yl)-propoxy]-quinolin-4-yloxy}-phenyl)-amide] returned a melting point of 118 to 120 °C. The IC50 in the data set with Hs578T [1] fell in the range of 10 to 25 µM. Moreover, in data set [2], the IC50 was less than 0.5 µM. This compound showed an IC50 in the data set with Hs578T [3] not above 12.5 µM. Moreover, the IC50 with Hs578T [4] is not above 12.5 µM.
For the compound `COc1cc2c(Oc3ccc(NS(=O)(=O)c4c(Cl)csc4Cl)cc3F)ccnc2cc1OCCCN1CCCCC1C` (stereo not shown) [Example 146, 2,4-Dichloro-thiophene-3-sulfonic acid (3-fluoro-4-{6-methoxy-7-[3-(2-methyl-piperidin-1-yl)-propoxy]-quinolin-4-yloxy}-phenyl)-amide], the melting point lay in the range of 131 to 132 °C. The IC50 in the data set on Hs578T [1] fell in the range of 10 to 25 µM. This compound came in with an IC50 in data set [2] of less than 0.5 µM. Further, in the data set with Hs578T [3], the IC50 is not above 12.5 µM. Further, the IC50 with Hs578T [4] was not above 12.5 µM.
